53 molecules from patent publication US20230087118A1, “IMIDAZO[1,2-a][sequence] DERIVATIVES AND THEIR USE IN THE TREATMENT OF DISEASE” (priority 2019, published 2023) can be followed below.

The target of test [1] is T1, IRAK4 (Homo sapiens, UniProt Q9NWZ3).
T1 sequence (Q9NWZ3 1-460): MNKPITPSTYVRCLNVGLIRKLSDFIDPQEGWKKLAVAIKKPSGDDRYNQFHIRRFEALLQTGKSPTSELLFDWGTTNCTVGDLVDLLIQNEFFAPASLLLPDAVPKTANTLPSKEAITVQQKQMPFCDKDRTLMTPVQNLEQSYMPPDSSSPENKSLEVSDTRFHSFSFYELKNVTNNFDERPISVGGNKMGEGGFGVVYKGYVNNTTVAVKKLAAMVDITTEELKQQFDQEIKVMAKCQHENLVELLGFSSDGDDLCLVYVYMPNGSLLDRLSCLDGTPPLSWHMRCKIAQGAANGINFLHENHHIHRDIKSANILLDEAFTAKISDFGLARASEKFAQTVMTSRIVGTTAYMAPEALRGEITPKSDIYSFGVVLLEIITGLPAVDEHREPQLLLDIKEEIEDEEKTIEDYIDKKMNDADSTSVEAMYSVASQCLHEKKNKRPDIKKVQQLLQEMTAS
As to the kind of experiment: biochemical.

Test [2] addresses T1, IRAK4. Nature of the test: 2-hour 10 μM ATP Biochemical Assay (MesoScale Detection format; IRAK4 phosphorylation of biotin labeled IRAK1 activation loop peptide). As to the method:
Compounds of the invention were assessed for their ability to inhibit IRAK4 activity. The inhibitory properties of the compounds of the invention described herein can be evidenced by testing in any one of the following assays.
The 2-hour 10 μM ATP Biochemical Assay employs a MesoScale Detection (MSD) format. The kinase reaction is based on the IRAK4 phosphorylation of a biotin labeled peptide (IRAK1 activation loop sequence 360-389).
The kinase reaction in 30 μl is carried out in wells of a 384 well polypropylene assay plate, with 0.1 nM IRAK4, 1.6 μM of biotinylated peptide substrate and 10 μM ATP in 50 mM Hepes, pH 7.5, 60 mM NaCl, 5 mM MgCl2, 0.25 mM MnCl2, 2 mM DTT, 0.01% BSA, and 1% DMSO (from compound DMSO stocks), for 2 hour at room temperature. The activity is quenched with 11 μl of 70 mM EDTA, pH 8.
To detect the phosphorylated biotinylated peptide substrate, 30 μl of the quenched reaction mixture is added to equivalent wells of a 384 well streptavidin coated MesoScale plate (Meso Scale Discovery #L21SA-1). After a 1 hour incubation of the plate for 1 hour at room temperature with gentle mixing, the plate wells are washed 3 times with 50 mM Tris, pH 7.5, 150 mM NaCl, 0.02% Tween-20.
A 25 μl volume of 1:500 anti-P-Threonine Rabbit polyclonal Antibody plus 1:500 Goat-anti-Rabbit Sulfo Tag Antibody (Meso Scale Discovery R32AB-1) in 50 mM Tris, pH 7.5, 150 mM NaCl, 0.02% Tween-20 plus 2% BSA is then added to each well. After a 1-hour incubation of the plate for 1 hour at room temperature with gentle mixing, the plate wells are washed, 3 times with 50 mM Tris, pH 7.5, 150 mM NaCl, 0.02% Tween-20. A 40 μl volume of 2× MSD Read Buffer (Meso Scale Discovery R92TC-1) is added to each well, and the plate is read immediately in an MSD Plate Reader (Meso Scale Discovery).

The mark [3] stands for this setting: IRAK4 Biochemical Assay (1 mM ATP, 2 h) IC50 (μM), 1 mM ATP, 2 h, 100 pM IRAK4.

On to `COc1cc2nc(C3CCOCC3)cn2cc1C(=O)Nc1cccc2c1CCO2` [Example 107], for which the IC50 (in general, the concentration at which inhibition is half-maximal) on IRAK4 [1] was 0.04 µM; at IRAK4 [2] (0.1 nM IRAK4), 13 nM.
As for `COc1cc2nc(CC3CCOCC3)cn2cc1C(=O)Nc1cccc(C(F)(F)F)n1` [Example 45], the results for the IC50 against IRAK4 [1] (setting [3]) and on IRAK4 [2] (0.1 nM IRAK4) were 0.0401 µM and 13 nM, respectively.
Regarding `COc1cc2nc(C3CCOCC3)cn2cc1C(=O)Nc1cc(F)cc(C(F)F)c1` [Example 169], the figures for the IC50 at IRAK4 [1] and against IRAK4 [2] (0.1 nM IRAK4) were 0.0296 µM and 12 nM, respectively.
For `COc1cc2nc(C3CCOCC3)cn2cc1C(=O)Nc1cccc(C(F)(F)F)c1` [Example 158], in that order: 0.0257 µM and 8 nM.
The like results for `COc1cccc(NC(=O)c2cn3cc(CC4CCOC4)nc3cc2OC)n1` (stereo not shown) [Example 24] were, in that order, 0.021 µM and 7 nM.
For `COc1cc2nc(C3CCOCC3)cn2cc1C(=O)Nc1cccc(C(F)(F)F)c1C` [Example 142], in that order: 0.0383 µM and 14 nM.
As to `CCOc1cc2nc(C(C)(C)C#N)cn2cc1C(=O)Nc1cccc(C(F)F)n1` [Example 74], the IC50 against IRAK4 [1] came out at 0.0134 µM; against IRAK4 [2] (0.1 nM IRAK4), 5 nM.
On to `COc1cc2nc(C3CC4(CCOC4)C3)cn2cc1C(=O)Nc1cccc(C(F)(F)F)n1` (stereo not shown) [Example 38], for which the values for the IC50 against IRAK4 [1] (setting [3]) and on IRAK4 [2] (0.1 nM IRAK4) were 0.0048 µM and 2 nM, respectively.
`COc1cc2nc(C3CCOCC3)cn2cc1C(=O)Nc1cscc1C` [Example 135]: the IC50 was 0.0645 µM against IRAK4 [1] and 14 nM against IRAK4 [2] (0.1 nM IRAK4).
On to `COc1cc2nc(C3CC34CCOCC4)cn2cc1C(=O)Nc1cccc(C(F)(F)F)n1` (stereo not shown) [Example 40], for which the IC50 against IRAK4 [1] (setting [3]) was found to be 0.0305 µM; against IRAK4 [2] (0.1 nM IRAK4), 9 nM.
In the case of `COc1cc2nc(C3CCOCC3)cn2cc1C(=O)Nc1cccc(C(F)(F)F)n1` [Example 203], the results for the IC50 against IRAK4 [1] and against IRAK4 [2] (0.1 nM IRAK4) were 0.0096 µM and 4 nM, respectively.
For `COc1cc2nc(C3CCOCC3)cn2cc1C(=O)Nc1cccc(CF)c1` [Example 141], in that order: 0.0245 µM and 8 nM.
For `COc1cc2nc(C3CCOCC3)cn2cc1C(=O)Nc1cccc(F)c1Cl` [Example 173], in that order: 0.016 µM and 4 nM.
Turning to `COc1cc2nc(C3CCOCC3)cn2cc1C(=O)Nc1ccccc1OC(C)C` [Example 168], the IC50 against IRAK4 [1] turned out to be 0.0378 µM; against IRAK4 [2] (0.1 nM IRAK4) it was 11 nM.
The like results for `COc1cc2nc(C3CCOCC3)cn2cc1C(=O)Nc1cccc(Cl)c1C` [Example 174] were, in that order, 0.0477 µM and 7 nM.
For `COc1cc2nc(C3CCOCC3)cn2cc1C(=O)Nc1cccc2c1OCC2` [Example 179], in that order: 0.0089 µM and 4 nM.
In the case of `COc1cc2nc(C3CCOCC3)cn2cc1C(=O)Nc1cccc(C(C)(F)F)c1` [Example 145], the values for the IC50 on IRAK4 [1] and at IRAK4 [2] (0.1 nM IRAK4) were 0.0419 µM and 13 nM, respectively.
Regarding `COc1cccc(NC(=O)c2cn3cc(C4CC45CCCCO5)nc3cc2OC)n1` (stereo not shown) [Example 9], the IC50 was 0.0242 µM at IRAK4 [1] (setting [3]) and 9 nM at IRAK4 [2] (0.1 nM IRAK4).
On to `CCOc1cc2nc(C[C@@H]3CCOC3)cn2cc1C(=O)Nc1cccc(C(F)F)n1` [Example 65, N-[6-(difluoromethyl)-2-pyridyl]-7-ethoxy-2-[[(3R)-tetrahydrofuran-3-yl]methyl]imidazo[1,2-a]pyridine-6-carboxamide], for which the IC50 is 0.0015 µM on IRAK4 [1] and 1 nM against IRAK4 [2] (0.1 nM IRAK4).
As to `COc1cc2nc(C3CC(OC)C3)cn2cc1C(=O)Nc1cccc(C(F)(F)F)n1` (stereo not shown) [Example 36], the IC50 on IRAK4 [1] (setting [3]) came to 0.0262 µM; on IRAK4 [2] (0.1 nM IRAK4), 8 nM.
On IRAK4 [2] (0.1 nM IRAK4), `CCOc1cc2nc(CCCOC)cn2cc1C(=O)Nc1cccc(C(F)F)n1` [Example 85] yielded an IC50 of 1 nM.
Same read-out and setting: with `COc1cc2nc(C3CCOCC3)cn2cc1C(=O)Nc1nc(C)c(Cl)s1` [Example 171] the figure was 845 nM; with `COc1cc(F)cc(NC(=O)c2cn3cc(C4CCOCC4)nc3cc2OC)c1` [Example 151], 46 nM; with `CCc1ccccc1NC(=O)c1cn2cc(C3CCOCC3)nc2cc1OC` [Example 167], 73 nM.
On the same count and under the same terms, with `COc1cc2nc(C3CCOCC3)cn2cc1C(=O)N[C@@]12CCC[C@@H]1C2` (racemic) [Example 149] the figure was 794 nM.
With `COc1cccc(NC(=O)c2cn3cc(C[C@@H]4CCOC4)nc3cc2OC)n1` [Example 51, (R)-7-methoxy-N-(6-methoxypyridin-2-yl)-2-((tetrahydrofuran-3-yl)methyl)imidazo[1,2-a]pyridine-6-carboxamide], the IC50 on IRAK4 [2] (read-out: IRAK4 Biochemical Assay (10 μM ATP, 2 h) IC50, 0.1 nM IRAK4) is 3 nM.
For the molecule `COc1cccc(NC(=O)c2cn3cc(C4CC5CCC(C4)O5)nc3cc2OC)n1` (stereo not shown) [Example 18], it took 1 nM to reach half-maximal inhibition against IRAK4 [2] (0.1 nM IRAK4) (IC50).
On the same count and under the same terms, as for `COc1cc2nc(C3CCOCC3)cn2cc1C(=O)Nc1cc(C)cc(F)c1` [Example 176], the figure is 30 nM; as for `COc1cc2nc(C3CCOCC3)cn2cc1C(=O)N[C@@H]1CCCC[C@H]1OC` (racemic) [Example 155], 230 nM; as for `COc1cc2nc(C3CCOCC3)cn2cc1C(=O)N[C@@H]1C[C@H]1C1CCC1` (racemic) [Example 154], 412 nM.
On the same count and under the same terms, as for `COc1cc2nc(C3CCOCC3)cn2cc1C(=O)Nc1ccc(F)c(C(F)F)c1` [Example 159], the figure is 20 nM.
Same read-out and setting: with `CCOc1cc2nc(C3CCOCC3)cn2cc1C(=O)Nc1cccc(C(F)F)n1` [Example 73] the figure was 1 nM.
Turning to `COc1cc2nc(C3CCOCC3)cn2cc1C(=O)Nc1cnsc1` [Example 138], at IRAK4 [2] (0.1 nM IRAK4), half-maximal inhibition (IC50) required 65 nM.
The same measure, in the same setting: with `O=C(Nc1ccn(C(F)F)n1)c1ccc2nc(C3CCOCC3)cn2c1` [Example 49] the figure was 350 nM; with `COc1cc2nc(C3CCOCC3)cn2cc1C(=O)NC1CC(OC)c2ccccc21` (stereo not shown) [Example 136], 944 nM; with `COc1cc2nc(C(C)(C)CC#N)cn2cc1C(=O)Nc1cccc(C(F)(F)F)n1` [Example 46], 37 nM.
Same read-out and setting: as for `COc1cc2nc(C3CCOCC3)cn2cc1C(=O)NC1CCCC(F)C1` (stereo not shown) [Example 139], the figure is 725 nM.
For `COc1cc2nc(C3CCOCC3)cn2cc1C(=O)Nc1cccc(C2CC2)c1` [Example 163], on IRAK4 [2] (0.1 nM IRAK4), the IC50 was 688 nM.
With `COc1cc2nc(C3CCOCC3)cn2cc1C(=O)Nc1cc(F)ccn1` [Example 132], on IRAK4 [2] (0.1 nM IRAK4), the IC50 was found to be 34 nM.
For `COc1cc2nc(C3CCOCC3)cn2cc1C(=O)Nc1cc(F)cc(Cl)c1` [Example 172], 21 nM corresponded to half-maximal inhibition against IRAK4 [2] (0.1 nM IRAK4) (IC50).
The same measure, in the same setting: with `COc1cc2nc(C3CCOCC3)cn2cc1C(=O)Nc1ccccc1CC(C)C` [Example 140] the figure was 822 nM; with `COc1cc2nc(C3CCOCC3)cn2cc1C(=O)Nc1cccc(OC)c1C` [Example 160], 70 nM; with `COc1cc2nc(C3CCOCC3)cn2cc1C(=O)Nc1cc(F)cc(F)c1F` [Example 120], 18 nM.
On to `COc1cc2nc(C3CCOCC3)cn2cc1C(=O)Nc1cc(C)cc(C)c1OC` [Example 166], for which the midpoint of inhibition against IRAK4 [2] (0.1 nM IRAK4), the IC50, lay at 306 nM.
As for `COc1cccc(NC(=O)c2cn3cc(C4CCC(OC)C4)nc3cc2OC)n1` (stereo not shown) [Example 17], the IC50 against IRAK4 [2] (0.1 nM IRAK4) is 2 nM.
On the same count and under the same terms, with `COc1cc2nc(C3CCOCC3)cn2cc1C(=O)NC1C2CCOC2C12CCC2` (stereo not shown) [Example 124] the figure was 122 nM.
Regarding `COc1cc2nc(C3CCOCC3)cn2cc1C(=O)NC1CCCC2C1C2(F)F` (stereo not shown) [Example 117], the IC50 on IRAK4 [2] (0.1 nM IRAK4) was 567 nM.
The same measure, in the same setting: with `COc1cc2nc(C3CCOCC3)cn2cc1C(=O)Nc1cc(F)cc(F)c1` [Example 152] the figure was 23 nM.
Same read-out and setting: with `COc1cc2nc(C3CCOCC3)cn2cc1C(=O)Nc1ccns1` [Example 156] the figure was 147 nM.
The same measure, in the same setting: with `COc1cc2nc(C3CCOCC3)cn2cc1C(=O)NC1CC(C)C1` (stereo not shown) [Example 134] the figure was 632 nM; with `COc1cccc(NC(=O)c2ccc3nc(C4CCOCC4)cn3c2)n1` [Example 47], 92 nM; with `COc1cc2nc(C3CCOCC3)cn2cc1C(=O)Nc1cc(F)ccc1OC(C)C` [Example 106], 80 nM.
On IRAK4 [2] (0.1 nM IRAK4), `COc1cc2nc(C3CCOC3)cn2cc1C(=O)Nc1cccc(C(F)(F)F)n1` (stereo not shown) [Example 35] returned an IC50 of 12 nM.
